Source: PMC6257622, “Discovery and Structure–Activity-Relationship Study of N-Alkyl-5-hydroxypyrimidinone Carboxamides as Novel Antitubercular Agents Targeting Decaprenylphosphoryl-β-D-ribose 2′-Oxidase” (Journal of Medicinal Chemistry, 2018)
Converted amounts (≈) assume the structure as drawn.

Tests used:
Assay type in all cases: cell-based, Mycobacterium tuberculosis
[1] = test system: dprE12–TetON1 mutant (dprE1–dprE2 operon); details: removal of anhydrotetracycline; OD580nm at day 10 relative to DMSO control
[2] = test system: P01-resistant mutants of Mtb H37Rv
Mtb DprE1 Y314C mutant = test system: Mtb DprE1 Y314C mutant
Mtb DprE1 Y314H mutant = test system: Mtb DprE1 Y314H mutant
Mtb DprE1 P116S mutant = test system: Mtb DprE1 P116S mutant
Mtb DprE1 N364S mutant = test system: Mtb DprE1 N364S mutant

CC[C@@H](CO)NCCN[C@@H](CC)CO [ethambutol, reference compound]
effect of dprE1–dprE2 transcriptional repression on susceptibility / growth inhibition [1]: equipotent efficacy

CCOC(=O)NC(=O)c1ccsc1NC(=O)c1nc2ccccc2s1 [TCA1, reference compound]
effect of dprE1–dprE2 transcriptional repression on susceptibility / growth inhibition [1]: increase in susceptibility

CCn1c(Cc2ccccc2C(F)(F)F)nc(C(=O)NCc2ccccc2)c(O)c1=O [Compound P04, N-Benzyl-1-ethyl-5-hydroxy-6-oxo-2-(2-(trifluoromethyl)benzyl)-1,6-dihydropyrimidine-4-carboxamide]
effect of dprE1–dprE2 transcriptional repression on susceptibility / growth inhibition [1]: more growth inhibition

C[C@H]1COC2(CCN(c3nc(=O)c4cc(C(F)(F)F)cc([N+](=O)[O-])c4s3)CC2)O1 [BTZ043, reference compound]
effect of dprE1–dprE2 transcriptional repression on susceptibility / growth inhibition [1]: increase in susceptibility

CC(NC(=O)c1nc(Cc2ccccc2C(F)(F)F)n(C)c(=O)c1O)c1ccccc1 (stereo not shown) [Compound P13, 5-Hydroxy-1-methyl-6-oxo-N-(1-phenylethyl)-2-(2-(trifluoromethyl)benzyl)-1,6-dihydropyrimidine-4-carboxamide]
effect of dprE1–dprE2 transcriptional repression on susceptibility / growth inhibition [1]: did not result in growth inhibition

Cn1c(Cc2ccccc2C(F)(F)F)nc(C(=O)NCc2ccccc2)c(O)c1=O [Compound P01, N-Benzyl-5-hydroxy-1-methyl-6-oxo-2-(2-(trifluoromethyl)benzyl)-1,6-dihydropyrimidine-4-carboxamide]
level of resistance of P01-resistant mutants compared with the parental strain [2]: more than 10 fold
mutation frequency ([2]; at 10× MIC on solid medium): 7 × 10^–9
MIC, DprE1 mutation Y314C (Mtb DprE1 Y314C mutant): 25 µM (≈ 10.4 µg/mL)
fold change of MIC, Y314C (Mtb DprE1 Y314C mutant): 8
MIC, DprE1 mutation Y314H (Mtb DprE1 Y314H mutant): >50 µM
fold change of MIC, Y314H (Mtb DprE1 Y314H mutant): >16
MIC, DprE1 mutation P116S (Mtb DprE1 P116S mutant): 18.8 µM (≈ 7.85 µg/mL)
fold change of MIC, P116S (Mtb DprE1 P116S mutant): 6
MIC, DprE1 mutation N364S (Mtb DprE1 N364S mutant): 2.34 µM (≈ 0.977 µg/mL)
fold change of MIC, N364S (Mtb DprE1 N364S mutant): 0.75
effect of dprE1–dprE2 transcriptional repression on susceptibility / growth inhibition [1]: more growth inhibition
